Columns and labels:
Glucocorticoid receptor = target: T1, Glucocorticoid receptor (Homo sapiens, UniProt P04150); assay: Inhibition of CHO-K1 cells expressing glucocorticoid receptor; type: cell-based
T1 sequence (P04150 whole entry): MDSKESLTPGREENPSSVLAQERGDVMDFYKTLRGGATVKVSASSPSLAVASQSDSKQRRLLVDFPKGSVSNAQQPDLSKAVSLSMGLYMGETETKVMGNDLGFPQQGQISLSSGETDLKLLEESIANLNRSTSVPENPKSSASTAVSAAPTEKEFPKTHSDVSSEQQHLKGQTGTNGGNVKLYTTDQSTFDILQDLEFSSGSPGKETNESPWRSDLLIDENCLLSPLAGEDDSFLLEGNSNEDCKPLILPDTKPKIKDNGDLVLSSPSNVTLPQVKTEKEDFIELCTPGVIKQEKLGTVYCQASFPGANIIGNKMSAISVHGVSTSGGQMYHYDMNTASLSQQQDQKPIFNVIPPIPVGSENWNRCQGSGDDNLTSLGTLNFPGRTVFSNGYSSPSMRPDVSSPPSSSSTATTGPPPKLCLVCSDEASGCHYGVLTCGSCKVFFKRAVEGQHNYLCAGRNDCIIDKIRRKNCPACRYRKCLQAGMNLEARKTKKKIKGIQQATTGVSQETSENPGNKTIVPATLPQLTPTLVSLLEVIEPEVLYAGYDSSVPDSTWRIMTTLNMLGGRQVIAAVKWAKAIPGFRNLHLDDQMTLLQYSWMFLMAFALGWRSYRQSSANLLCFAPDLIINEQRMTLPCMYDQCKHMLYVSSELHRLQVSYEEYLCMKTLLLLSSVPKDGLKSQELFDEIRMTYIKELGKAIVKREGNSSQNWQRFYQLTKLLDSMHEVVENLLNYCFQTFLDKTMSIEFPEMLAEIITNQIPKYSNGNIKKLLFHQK

Androgen receptor [1] = target: T2, Androgen receptor (Homo sapiens, UniProt P10275); assay: Inhibition of human androgen receptor expressed in Escherichia coli
T2 sequence (P10275 whole entry): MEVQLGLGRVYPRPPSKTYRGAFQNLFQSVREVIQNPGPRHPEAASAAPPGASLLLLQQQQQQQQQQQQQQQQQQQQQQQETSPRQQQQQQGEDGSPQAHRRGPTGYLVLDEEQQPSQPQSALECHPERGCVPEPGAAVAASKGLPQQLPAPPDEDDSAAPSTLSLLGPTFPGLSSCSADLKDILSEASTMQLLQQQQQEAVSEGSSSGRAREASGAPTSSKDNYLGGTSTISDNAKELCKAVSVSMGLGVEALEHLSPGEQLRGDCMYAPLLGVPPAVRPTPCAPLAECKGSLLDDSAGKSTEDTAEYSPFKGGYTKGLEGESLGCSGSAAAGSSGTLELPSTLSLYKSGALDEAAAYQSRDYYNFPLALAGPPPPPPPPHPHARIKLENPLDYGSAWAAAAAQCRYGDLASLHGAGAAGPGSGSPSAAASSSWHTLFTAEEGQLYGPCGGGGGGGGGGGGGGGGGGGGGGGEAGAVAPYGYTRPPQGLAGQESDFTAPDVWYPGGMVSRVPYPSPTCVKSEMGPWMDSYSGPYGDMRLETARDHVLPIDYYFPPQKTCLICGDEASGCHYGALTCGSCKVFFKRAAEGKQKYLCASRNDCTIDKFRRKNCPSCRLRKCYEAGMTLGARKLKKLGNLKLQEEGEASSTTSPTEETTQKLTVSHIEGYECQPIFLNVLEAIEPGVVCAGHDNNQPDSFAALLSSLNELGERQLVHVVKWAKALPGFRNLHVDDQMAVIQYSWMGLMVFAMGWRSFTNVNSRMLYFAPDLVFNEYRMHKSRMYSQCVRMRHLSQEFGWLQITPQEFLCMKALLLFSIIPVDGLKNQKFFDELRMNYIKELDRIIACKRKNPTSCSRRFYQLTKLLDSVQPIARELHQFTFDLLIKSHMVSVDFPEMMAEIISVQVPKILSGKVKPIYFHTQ

Androgen receptor [2] = target: T2, Androgen receptor; assay: Inhibition of AR-dimerization in CHO-K1 cells expressing human androgen receptor

How did the IC50 (Glucocorticoid receptor) turn out when `CC[C@H]1C[C@@]2(C)C(CC[C@@H]2O)C2CCC3=CC(=O)CCC3=C21` (stereo partly drawn) was run?
Its IC50 is 1290 nM.

And the IC50 (Androgen receptor [1])?
Its IC50 is 2 nM.

How did the IC50 (Glucocorticoid receptor) turn out when `CCCCC[C@H]1C[C@@]2(C)C(CC[C@@H]2O)C2CCC3=CC(=O)CCC3=C21` (stereo partly drawn) was run?
The IC50 was 125 nM.

What about the IC50 (Androgen receptor [2]) of the same molecule?
Its IC50 is 0.009 nM.

And the IC50 (Androgen receptor [1])?
Its IC50 is 0.1 nM.

`CCCCCCCCCC[C@H]1C[C@@]2(C)C(CC[C@@H]2O)C2CCC3=CC(=O)CCC3=C21` (stereo partly drawn) was tested. Which IC50 (Glucocorticoid receptor) did it give?
The IC50 was 1810 nM.

And the IC50 (Androgen receptor [2])?
Its IC50 is 85 nM.

What about the IC50 (Androgen receptor [1]) of the same molecule?
The IC50 was 0.8 nM.

Which IC50 (Glucocorticoid receptor) does the source give for `CCCCCCCC[C@H]1C[C@@]2(C)C(CC[C@@H]2O)C2CCC3=CC(=O)CCC3=C21` (stereo partly drawn) here?
Its IC50 is 979 nM.

What about the IC50 (Androgen receptor [2]) of the same molecule?
Its IC50 is 0.9 nM.

And the IC50 (Androgen receptor [1])?
The IC50 was 6.6 nM.

Which results are given for `CCCCCCCCCCCC[C@H]1C[C@@]2(C)C(CC[C@@H]2O)C2CCC3=CC(=O)CCC3=C21` (stereo partly drawn)?
IC50 (Glucocorticoid receptor): 870 nM; IC50 (Androgen receptor [1]): 0.2 nM

From ChEMBL document CHEMBL1137214, “11beta-alkyl-Delta9-19-nortestosterone derivatives: high-affinity ligands and potent partial agonists of the androgen receptor” (J Med Chem, 2004)
